Experimental data: patent US20100255580A1, “Differentiation of Human Embryonic Stem Cells” (LIFESCCAN, INC., priority 2007, published 2010)

Experiments:
[1] = system: human embryonic stem cell line H9; assay: FACS analysis of protein expression following activin A treatment, H9 on MEF; format: cell-based; conditions: for CD9 protein expression (FACS) / CXCR4 protein expression (FACS) / ECAM protein expression (FACS) / NCAM protein expression (FACS) / SSEA-3 protein expression (FACS): activin A 100 ng/ml
Procedure: The level of expression of definitive endoderm markers was examined by PCR (FIG. 1), FACS (results summarized in Table II), and immunohistochemistry (FIG. 2).
Adhered cells were removed from culture plates by five-minute incubation with TrypLE™ Express solution (Invitrogen, CA). Released cells were resuspended in human embryonic stem cell culture medium and recovered by centrifugation, followed by washing and resuspending the cells in a staining buffer consisting of 2% BSA, 0.05% sodium azide in PBS (Sigma, MO). As appropriate, the cells were Fc-receptor blocked for 15 minutes using a 0.1% γ-globulin (Sigma) solution. […] Controls included appropriate isotype matched antibodies, unstained cells, and cells stained only with secondary conjugated antibody. All incubations with antibodies were performed for 30 mins at 4° C. after which the cells were washed with the staining buffer. Samples that were stained with unconjugated primary antibodies were incubated for an additional 30 mins at 4° C. with secondary conjugated PE or -APC labeled antibodies. See Table I for a list of secondary antibodies used. Washed cells were pelleted and resuspended in the staining buffer, and the cell surface molecules were identified using a FACS Array (BD Biosciences) instrument, collecting at least 10,000 events.

H9P44 cells = assay: RT-PCR of definitive endoderm markers, growth factor combinations in low serum on MEFs (Example 22); format: cell-based, human; conditions: H9P44 on MEF; Day 3; normalized to Group 1 (control)
Procedure: Real-time PCR amplification and quantitative analysis.
Final data were expressed relative to a calibrator sample.
H9P44 cells were plated onto 6 well plates previously coated with mitomycin treated mouse embryonic fibroblasts (MEF). Cells were grown until 70 to 80% confluency in ES cell medium consisting of DMEM/F12 (Invitrogen/GIBCO) supplemented with 20% knockout serum replacement, 100 nM MEM nonessential amino acids, 0.5 mM beta-mercaptoethanol, 2 mM L-glutamine (all from Invitrogen/GIBCO) and 8 ng/ml human basic fibroblast growth factor (bFGF) (R&D Systems).
Growth factors were added to increasing concentration of FBS in a stepwise manner as indicated in the following regimen: • Day 0: 0% FBS in DMEM/F12 • Day 1: 0.5% FBS in DMEM/F12 • Day 2: 2% FBS in DMEM/F12. • Day 3: Cells were harvested for FACS analysis and RT-PCR.
All growth factors were purchased from R&D Systems, MN. A detailed description and concentration of growth factors for each treatment group is shown below.
For RT-PCR analysis, cells were analyzed for expression of selected panel of definitive endoderm markers.

Activin A: a member of the TGFβ superfamily; R&D Systems; Group 2 = Activin A (100 ng/ml)
CD9 protein expression (FACS) ([1]; 2-DAY): 29.42% | CXCR4 protein expression (FACS) ([1]; 2-DAY): 20.2% | ECAM protein expression (FACS) ([1]; 2-DAY): 20.87% | NCAM protein expression (FACS) ([1]; 2-DAY): 5.04% | SSEA-3 protein expression (FACS) ([1]; 2-DAY): 92.14% | CD9 protein expression (FACS) ([1]; 5-DAY): 7.27% | CXCR4 protein expression (FACS) ([1]; 5-DAY): 55.26% | ECAM protein expression (FACS) ([1]; 5-DAY): 14.17% | NCAM protein expression (FACS) ([1]; 5-DAY): 21.1% | SSEA-3 protein expression (FACS) ([1]; 5-DAY): 42.9% | CD9 protein expression (FACS) ([1]; 8-DAY): 4.1% | CXCR4 protein expression (FACS) ([1]; 8-DAY): 56.92% | ECAM protein expression (FACS) ([1]; 8-DAY): 1.02% | NCAM protein expression (FACS) ([1]; 8-DAY): 8.86% | SSEA-3 protein expression (FACS) ([1]; 8-DAY): 22.05% | expression of E-cadherin and N-cadherin (FACS) ([1]; following activin A treatment): did not change | CXCR4 relative expression (H9P44 cells): 19.5 | Goosecoid relative expression (H9P44 cells): 2.8 | HNF-3B relative expression (H9P44 cells): 0.64 | Oct-4 relative expression (H9P44 cells): 1.1 | SOX-2 relative expression (H9P44 cells): 0.91 | Sox17 relative expression (H9P44 cells): 45
